Source: US20220184000A1, “USE OF CANNABIDIOL IN THE TREATMENT OF DRAVET SYNDROME” (priority 2019, published 2022)

How the values were obtained:
Format in all cases: in vivo
[1] = system: Scn1a^−/− mice; assay: Neonatal welfare scoring (TNW) in Scn1a^−/− mice, Study I
Method: 129S-Scn1a^tm1Keammjax heterozygote mice (Jackson Laboratory, USA) were maintained in and bred together to obtain Scn1a^−/− and wild type (WT) animals used for this Study (n=10 per group).
Following genotyping, animals were randomly divided into four groups WT vehicle-treated, WT CBD-treated, Scn1a^−/− vehicle-treated and Scn1a^−/− CBD-treated (n=10/group). They were injected subcutaneously twice daily with either CBD (100 mg/kg) or its vehicle (ethanol:Kolliphor®:0.9% saline=2:1:17) from P8 until P25 or death (whichever was earlier).
A twice daily welfare check was conducted throughout the entire duration of the study. Drug administration was conducted at 0800 h and followed by welfare checks. Conversely, afternoon welfare checks were conducted from 1600 h and followed by drug administration in order to provide the maximum possible time between doses. […]
The parameters used for the welfare assessment were: weight, natural activity (NA; 0-3), reflex/response to touch (RT; 0-3), orbital tightening (OT; 0-2), and body condition score (BC; 1-3). A total neonatal welfare score (TNW; range 0-8) was calculated by adding together scores from NA, RT, and […].
In Study I, the welfare parameters were analysed using SPSS 24 (IBM SPSS Statistics®, UK), whilst survival data were analysed using GraphPad Prism 6 software (GraphPad Software, Inc., USA). […] All the data are expressed as mean±SEM. […]

[2] = system: Scn1a^+/− mice; assay: Static beam test (motor function), Study II; settings: CBD 100 mg/kg s.c. twice daily
Method: (§1) Here, Scn1a^+/− were randomly divided into two groups and subcutaneously injected with either CBD (100 mg/kg twice daily; n=12) or its vehicle (ethanol:Kolliphor®:0.9% saline=2:1:17; n=29) from P8 onwards until P52 or death (whichever was earlier).
The static beam task was further employed to analyse balance and coordination (Sedy, Urdzikova, Jendelova, & Sykova, 2008), where the animals were required to walk along a cylindrical elevated beam (100 cm long, 0.9 cm diameter and 50 cm height from floor) and enter a dark enclosure at the beam end. The mice were habituated to the task for three consecutive days before the test day. […] The test was video monitored (Sony DCR-SX21E) and blinded offline analysis was conducted (Observer XT 12, Noldus, The Netherlands) to evaluate the average number of foot slips made from two consecutive trials.
In Study II, the data were analysed in GraphPad Prism 6 software. […] Data obtained from rotarod, gait, social interaction (active interaction), EPM, sucrose preference, RAM (RME) tests were normally distributed and the differences between the three groups were analysed by one-way ANOVA. […] Parametric data are presented in scattered dot plot in the figures and are expressed as mean±SEM. Non-parametric data are presented in box plot in the figures and are expressed as median, min to max, and interquartile range (IQR). […]

[3] = system: Scn1a^+/− mice; assay: Eight-arm radial arm maze (RAM) test, cognition, Study II; settings: CBD 100 mg/kg s.c. twice daily
Method: as §1
A radial arm maze (RAM) consisting of eight arms (each arm 60×10 cm; raised at 50 cm above the floor) was used to assess the reference memory (RM) and working memory (WM) of the animals. On four consecutive days, animals were given two 10-minute sessions of habituation to the test apparatus and rules of the test, separated by a 90 min interval. During the first two days of habituation, food rewards (¼ Cheerios®, Nestle) were randomly scattered on the floor of the apparatus covering all arms and food-troughs at the end of each arm. On the 3rd and 4th habituation day, food rewards were placed only in food troughs of four randomly selected arms (fixed for each animal during the habituation and test day). Food was withdrawn 4-6 hours before the trial (both during habituation and test days) to motivate the animals to locate the rewards and thus perform the task. On the test day two trials of 10 min were conducted at 90 min interval and the activity of the animals were video recorded for offline blinded coding after the end of experiment. Entry to a non-baited arm was considered as a reference memory error (RME), whereas re-entry to a previously baited arm from which the food was already taken is considered as a working memory error (WME). The mean WME or RME were calculated from the two test trials.
In Study II, the data were analysed in GraphPad Prism 6 software. Survival curves of Scn1a^+/− vehicle-treated and Scn1a^+/− CBD-treated group were compared using a Mantel-Cox test. The percentage of animals from the Scn1a^+/− vehicle-treated and Scn1a^+/− CBD-treated groups that survived until the end of the study (P52) were compared by Fisher's exact test. Further, data obtained from the comorbidity assessment were checked for normality by D'Agostino & Pearson omnibus normality test. Data obtained from rotarod, gait, social interaction (active interaction), EPM, sucrose preference, RAM (RME) tests were normally distributed and the differences between the three groups were analysed by one-way ANOVA. If a significant difference was found then Holm-Sidak post-hoc test was conducted among the groups. […] Upon observing a significant difference, the Dunn's post-hoc test was employed to compare the groups. Multiple comparisons were corrected in all cases. Parametric data are presented in scattered dot plot in the figures and are expressed as mean±SEM. Non-parametric data are presented in box plot in the figures and are expressed as median, min to max, and interquartile range (IQR). […]

C=C(C)[C@@H]1CCC(C)=C[C@H]1c1c(O)cc(CCCCC)cc1O [CBD, cannabidiol]
mean total neonatal welfare (TNW) score ([1]; Scn1a^−/− CBD-treated group, CBD 100 mg/kg s.c. twice daily from P8 until P25 or death, n=10, mean±SEM, score range 0-8, vehicle group 3.66±0.04): 2.85±0.04
welfare scores versus vehicle-treated Scn1a^−/− mice (post hoc) ([1]; from P12 to P16, CBD 100 mg/kg s.c. twice daily, p<0.01, FIG. 1A): delayed the worsening of welfare scores
number of foot slips, Scn1a^+/− CBD-treated versus Scn1a^+/− vehicle-treated ([2]; p=0.23, FIG. 3B): no significant difference
number of foot slips, Scn1a^+/− CBD-treated versus WT vehicle-treated ([2]; p=0.48): no significant difference
reference memory errors (RME), Scn1a^+/− CBD-treated versus WT vehicle-treated ([3]; p=0.65): No difference
working memory errors (WME), Scn1a^+/− CBD-treated versus WT vehicle-treated ([3]; p>0.9999): not differed
reference memory errors (RME), Scn1a^+/− vehicle-treated compared to Scn1a^+/− CBD-treated ([3]; statement describes vehicle group relative to CBD group (n=10), p<0.0001, FIG. 4E): significantly more RME
working memory errors (WME), Scn1a^+/− vehicle-treated compared to Scn1a^+/− CBD-treated ([3]; statement describes vehicle group relative to CBD group, p=0.001, FIG. 4F): significantly more WME
